Measured values from patent publication US20150359913A1, “TETRAZINES/TRANS-CYCLOOCTENES IN SOLID PHASE SYNTHESIS OF LABELED PEPTIDES” (MEMORIAL SLOAN-KETTERING CANCER CENTER, priority 2013, published 2015).
One block for each molecule: values may come before it.

Experiments:
[1] = in vivo stability of the radioligand in the blood
Method: (§1) The stability of the radioligand was assayed in vitro by incubation in human serum at 37° C. and subsequent HPLC analysis. The ^64Cu-Tz-Bn-NOTA remained relatively stable after 1 h, with 93.0%±2.5% intact. […] In addition, in vivo stability experiments were performed, and these produced similar results, although some acceleration in decomposition can be noted: 77%±3% of the ^64Cu-Tz-Bn-NOTA is intact in the blood after 60 min, followed by 47%±2% after 2 h and 22%±3% after 6 h. Although greater stability may be preferable, the speed of the cycloaddition reaction and the rapid pharmacokinetics of the radioligand led us to believe it unlikely that poor serum stability at later time points would limit the system.

[2] = system: subcutaneous SW1222 xenografts; experiment: pre-targeted biodistribution: A33-TCO, 24 h later ^64Cu-Tz-Bn-NOTA; format: in vivo, mice; settings: for Biodistribution: Blood / Biodistribution: Bone / Biodistribution: Feces / Biodistribution: Heart / Biodistribution: Kidney / Biodistribution: Large intestine / Biodistribution: Liver / Biodistribution: Lung / Biodistribution: Muscle / Biodistribution: Skin / Biodistribution: Small intestine / Biodistribution: Spleen / Biodistribution: Stomach / Biodistribution: Tumor: A33-TCO (100 μg) 24 h before ^64Cu-Tz-Bn-NOTA; for uptake in all other tissues (not tumor, feces): generally
Method: Values are represented as % ID/g±SD. Mice (n=4) bearing subcutaneous SW1222 xenografts were administered huA33-TCO (100 μg) via tail vein injection. After 24 hours the same mice were administered ^64Cu-Tz-Bn-NOTA (0.55-0.75 MBq [15-20 μCi] via tail vein injection (t=0).
Following the synthesis and characterization of the components of the system, in vivo pre-targeted biodistribution and PET imaging experiments were performed. For the pre-targeted biodistribution experiments, mice bearing SW1222 xenografts were administered huA33-TCO (100 μg) via tail vein injection. After a 24 h interval, the mice were administered ^64Cu-Tz-NOTA via tail vein injection. The data reveal rapid accumulation and retention of activity in the tumor, with 4.1±0.3% ID/g at 1 h p.i and 4.2±0.3% ID/g at 12 h p.i. (Table 1). The compound is excreted through the feces, with high levels of activity at 1 h p.i. dropping to 0.9±0.1% ID/g at 12 h, and the amount of uptake in other tissues remains very low, generally less than 0.3% ID/g.
For the pre-targeted biodistribution experiments, mice bearing subcutaneous SW1222 xenografts were administered A33-TCO ([…]) via tail vein injection. […] The data reveal rapid accumulation and retention of radioactivity in the tumor, with 4.1±0.3 percent injected dose per gram (% ID/g) at 1 h after injection, 4.2±0.8% ID/g at 12 h, and 4.0±0.9% ID/g at 24 h (Table 1). The compound is excreted through the feces, with high levels of activity at 1 h after injection dropping to 2.5±0.1% ID/g at 12 h. The amount of uptake in all other tissues remains low, generally less than 1% ID/g.
The specificity of antibodies have made immunoconjugates promising vectors for the delivery of radioisotopes to cancer cells; however, their long pharmacologic half-lives necessitate the use of radioisotopes with long physical half-lives, a combination that leads to high radiation doses to patients. Therefore, the development of targeting modalities that harness the advantages of antibodies without their pharmacokinetic limitations is desirable. To this end, we report the development of a methodology for pre-targeted PET imaging based on the bioorthogonal Diels-Alder click reaction between tetrazine and transcyclooctene. A proof-of-concept system based on the A33 antibody, SW1222 colorectal cancer cells, and ^64Cu was used. The huA33 antibody was covalently modified with transcyclooctene, and a NOTA-modified tetrazine was synthesized and radiolabeled with ^64Cu. Pre-targeted in vivo biodistribution and PET imaging experiments were performed with athymic nude mice bearing A33 antigen-expressing, SW1222 colorectal cancer xenografts. The huA33 antibody was modified with transcyclooctene to produce a conjugate with high immunoreactivity, and the ^64Cu-NOTA-labeled tetrazine ligand was synthesized with greater than 99% purity and a specific activity of 9-10 MBq/mg. For in vivo experiments, mice bearing SW1222 xenografts were injected with transcyclooctene-modified A33; after allowing 24 h for accumulation of the antibody in the tumor, the mice were injected with 64Cu-NOTA-labeled tetrazine for PET imaging and biodistribution experiments. At 12 h after injection, the retention of uptake in the tumor ([…] percent injected dose per gram), coupled with the fecal excretion of excess radioligand, produced images with high tumor-to-background ratios. […] Conclusion: The high quality of the images produced by this pretargeting approach, combined with the ability of the methodology to dramatically reduce non-target radiation doses to patients, marks this system as a strong candidate for clinical translation.

[3] = in vitro stability of the radioligand in human serum at 37° C., HPLC; format: in vitro ADME
Method: as §1

A33 antigen (human) [4] = target: A33 antigen (human) (UniProt Q99795); experiment: immunoreactivity of the TCO-modified antibody (assay not described in this sentence)
Sequence of UniProt Q99795 (Q99795 22-319): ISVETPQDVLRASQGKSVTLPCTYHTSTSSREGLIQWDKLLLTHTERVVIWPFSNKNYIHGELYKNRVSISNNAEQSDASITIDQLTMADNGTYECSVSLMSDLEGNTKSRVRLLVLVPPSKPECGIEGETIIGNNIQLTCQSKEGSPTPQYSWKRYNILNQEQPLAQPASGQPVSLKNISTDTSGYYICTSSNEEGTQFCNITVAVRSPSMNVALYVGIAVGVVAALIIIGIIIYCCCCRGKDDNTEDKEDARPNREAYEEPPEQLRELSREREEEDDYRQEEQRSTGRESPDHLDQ

A33 antigen (human) [5] = target: A33 antigen (human) (UniProt Q99795); experiment: immunoreactivity assay of the radiolabelled antibody (cells not given)
A33 antigen (human) [6] = target: A33 antigen (human) (UniProt Q99795); experiment: immunoreactivity assay with A33 antigen-expressing SW1222 human colorectal cancer cells, radiolabelled antibody

radioligand intact in the blood ([1]; 60 min): 77%±3% | radioligand intact in the blood ([1]; 2 h): 47%±2% | radioligand intact in the blood ([1]; 6 h): 22%±3% | Biodistribution: Blood ([2]; 1 h): 3.5 ± 0.6 % ID/g | Biodistribution: Bone ([2]; 1 h): 0.3 ± 0.2 % ID/g | Biodistribution: Feces ([2]; 1 h): 11.9 ± 4.4 % ID/g | Biodistribution: Heart ([2]; 1 h): 1.1 ± 0.2 % ID/g | Biodistribution: Kidney ([2]; 1 h): 1.3 ± 0.1 % ID/g | Biodistribution: Large intestine ([2]; 1 h): 0.5 ± 0.0 % ID/g | Biodistribution: Liver ([2]; 1 h): 2.2 ± 0.3 % ID/g | Biodistribution: Lung ([2]; 1 h): 1.6 ± 0.5 % ID/g | Biodistribution: Muscle ([2]; 1 h): 0.2 ± 0.0 % ID/g | Biodistribution: Skin ([2]; 1 h): 0.3 ± 0.1 % ID/g | Biodistribution: Small intestine ([2]; 1 h): 0.0 ± 0.0 % ID/g | Biodistribution: Spleen ([2]; 1 h): 0.6 ± 0.1 % ID/g | Biodistribution: Stomach ([2]; 1 h): 0.5 ± 0.1 % ID/g | Biodistribution: Tumor ([2]; 1 h): 4.1±0.3 % ID/g | Biodistribution: Tumor ([2]; 1 h, listed as 64Cu-Tz-NOTA): 4.1±0.3 % ID/g | Biodistribution: Blood ([2]; 4 h): 2.6 ± 0.8 % ID/g | Biodistribution: Bone ([2]; 4 h): 0.3 ± 0.2 % ID/g | Biodistribution: Feces ([2]; 4 h): 8.8 ± 3.4 % ID/g | Biodistribution: Heart ([2]; 4 h): 0.9 ± 0.3 % ID/g | Biodistribution: Kidney ([2]; 4 h): 0.9 ± 0.3 % ID/g | Biodistribution: Large intestine ([2]; 4 h): 3.1 ± 1.1 % ID/g | Biodistribution: Liver ([2]; 4 h): 1.3 ± 0.3 % ID/g | Biodistribution: Lung ([2]; 4 h): 1.6 ± 0.4 % ID/g | Biodistribution: Muscle ([2]; 4 h): 0.1 ± 0.0 % ID/g | Biodistribution: Skin ([2]; 4 h): 0.3 ± 0.1 % ID/g | Biodistribution: Small intestine ([2]; 4 h): 0.4 ± 0.1 % ID/g | Biodistribution: Spleen ([2]; 4 h): 0.5 ± 0.2 % ID/g | Biodistribution: Stomach ([2]; 4 h): 0.3 ± 0.1 % ID/g | Biodistribution: Tumor ([2]; 4 h): 4.1 ± 0.6 % ID/g | Biodistribution: Blood ([2]; 12 h): 2.3 ± 0.4 % ID/g | Biodistribution: Bone ([2]; 12 h): 0.4 ± 0.1 % ID/g | Biodistribution: Feces ([2]; 12 h): 2.5±0.1 % ID/g | Biodistribution: Heart ([2]; 12 h): 0.9 ± 0.1 % ID/g | Biodistribution: Kidney ([2]; 12 h): 0.9 ± 0.3 % ID/g | Biodistribution: Large intestine ([2]; 12 h): 2.3 ± 1.0 % ID/g | Biodistribution: Liver ([2]; 12 h): 0.9 ± 0.2 % ID/g | Biodistribution: Lung ([2]; 12 h): 1.1 ± 0.4 % ID/g | Biodistribution: Muscle ([2]; 12 h): 0.2 ± 0.0 % ID/g | Biodistribution: Skin ([2]; 12 h): 0.4 ± 0.1 % ID/g | Biodistribution: Small intestine ([2]; 12 h): 0.8 ± 0.5 % ID/g | Biodistribution: Spleen ([2]; 12 h): 0.6 ± 0.3 % ID/g | Biodistribution: Stomach ([2]; 12 h): 0.5 ± 0.6 % ID/g | Biodistribution: Tumor ([2]; 12 h): 4.2±0.8 % ID/g | Biodistribution: Tumor ([2]; 12 h, listed as 64Cu-NOTA-labeled tetrazine): 4.1±0.3 % ID/g | Biodistribution: Feces ([2]; 12 h, listed as 64Cu-Tz-NOTA): 0.9±0.1 % ID/g | Biodistribution: Tumor ([2]; 12 h, listed as 64Cu-Tz-NOTA): 4.2±0.3 % ID/g | tumor-to-muscle activity concentration ratio ([2]; 12 h, pre-targeting, A33-TCO 24 h before radioligand): 26.6±6.6 | Biodistribution: Blood ([2]; 24 h): 2.1 ± 0.5 % ID/g | Biodistribution: Bone ([2]; 24 h): 0.3 ± 0.1 % ID/g | Biodistribution: Feces ([2]; 24 h): 1.4 ± 0.5 % ID/g | Biodistribution: Heart ([2]; 24 h): 0.8 ± 0.2 % ID/g | Biodistribution: Kidney ([2]; 24 h): 0.7 ± 0.2 % ID/g | Biodistribution: Large intestine ([2]; 24 h): 1.1 ± 0.4 % ID/g | Biodistribution: Liver ([2]; 24 h): 1.1 ± 0.2 % ID/g | Biodistribution: Lung ([2]; 24 h): 1.0 ± 0.3 % ID/g | Biodistribution: Muscle ([2]; 24 h): 0.1 ± 0.0 % ID/g | Biodistribution: Skin ([2]; 24 h): 0.5 ± 0.2 % ID/g | Biodistribution: Small intestine ([2]; 24 h): 0.3 ± 0.0 % ID/g | Biodistribution: Spleen ([2]; 24 h): 0.4 ± 0.1 % ID/g | Biodistribution: Stomach ([2]; 24 h): 0.2 ± 0.0 % ID/g | Biodistribution: Tumor ([2]; 24 h): 4.0±0.9 % ID/g | uptake in all other tissues (not tumor, feces) ([2]; pre-targeting): less than 1 % ID/g | uptake in all other tissues (not tumor, feces) ([2]; pre-targeting, listed as 64Cu-Tz-NOTA): less than 0.3 % ID/g | radioligand intact ([3]; 1 h): 93.0%±2.5% | radioligand intact ([3]; 12 h): 31.6%±6.1%
Molecule: O=C([O-])CN1CCN(CC(=O)[O-])CC(Cc2ccc(NC(=O)CCCC(=O)NCc3ccc(-c4nncnn4)cc3)cc2)N(CC(=O)[O-])CC1.[64Cu+2] (stereo not drawn) [^64Cu-Tz-Bn-NOTA]

immunoreactivity (A33 antigen (human) [4]): > 95%
Molecule: TCO-modified huA33 (huA33-TCO) (antibody)

immunoreactivity (A33 antigen (human) [5]): > 95% | immunoreactivity (A33 antigen (human) [6]): 95.6%
Molecule: ^64Cu-NOTA-A33 (A33-TCO reacted with ^64Cu-Tz-Bn-NOTA) (antibody)

immunoreactivity (A33 antigen (human) [5]): 92%
Molecule: ^89Zr-DFO-A33 (antibody)
